Data on one compound can be found in patent US20190000128A1, “INFANT FORMULA COMPRISING HUMAN MILK PEPTIDES” (THE A2 MILK COMPANY LIMITED, priority 2015, published 2019).

SMILES strings stand for the structures.

The assay deals with neuronal stem cell (NSC) cultures / foetal stem cells. The assay can be described thus: Neuronal stem cell neurogenesis, differentiation and proliferation by immunocytochemistry. The conditions noted are these: foetal stem cells treated with 1 μM; FIG. 3B. It is filed as cell-based. Here is the method:
Previously isolated and frozen neuronal stem cell cultures were properly thawed, maintained and cultured. Cell suspensions were grown in a defined medium (DF12) composed of DMEM/F12 (1:1), 2 mM L-glutamine, 1 mM sodium pyruvate, antibiotics/antimycotics (Invitrogen, Grand Island, N.Y.), 0.6% glucose, 25 μg/ml insulin, 20 nM progesterone, 60 μM putrescine, 30 nM sodium selenite (all from Sigma, St. Louis, Mo.), 100 μg/ml human transferrin (Roche, Indianapolis, Ind.), 20 ng/ml human recombinant […] growth factor (EGF; Roche or Invitrogen, Chicago, Ill.) and basic fibroblast growth factor (bFGF; Upstate Biotechnology, Lake Placid, N.Y.). The cells grew as free-floating aggregates (neurospheres) and were passaged by mechanical dissociation every 3-4 d. […]
To identify proliferating cells, 100 μM BrdU, an analog of thymidine, was added 24 h before cell fixation. […] A primary monoclonal antibody against BrdU (1:20; Dakopatts) was added for 1 h at room temperature and detected using AlexaFluor 488-labelled goat anti-mouse IgG (H+L). […] Apoptotic cells were visualised with Hoechst 33342 (LifeTechnologies, Md.) as fragmented pycnotic blue-stained nuclei and counted under the fluorescence microscope (López-Toledano M.A. and Shelanski M.L., 2004 Neurogenic effect of beta-amyloid peptide in the development of neural stem cells. J Neurosci. 24(23):5439-44). […]

As to `CN1CC[C@]23c4c5ccc(O)c4O[C@H]2[C@@H](O)C=C[C@H]3[C@H]1C5` [morphine, Morphine], the “neuronal proliferation (image of magnified foetal stem cells)” value is “extensive neuronal proliferation”.
